Consider four molecules from patent US10858410B2, “Glycosylated peptides with pseudoproline residues and having enhanced half-lives and ability to cross the blood brain barrier” (ARIZONA BOARD OF REGENTS ON BEHALF OF THE UNIVERSITY OF …, priority 2015, dated 2020).

Entries after “also recorded” stand apart in the source; their conditions may differ. No end group written: not given here.

For series [1] the following is noted: in vivo, ip.
The subject of the next series is PC12 cells. The series can be described thus: Differentiation of cultured PC12 cells. It counts as cell-based. To be noted: 100 nM, compared to vehicle treated cells, qualitative. Here is the method: The PC12 cells were cultured in RPMI containing 5% heat inactivated fetal bovine serum and 10% horse serum in the presence of 100 units/mL penicillin and 100 microgram/mL streptomycin. The cells were plated on poly-D-Lysine coated 6-well tissue culture plates at a density of 150,000 cells per well in 2 mL media. After 48 hours at 37° C. in 5% CO2 atmosphere, media exchange was performed and plates were dosed, using the peptide diluent (water) for the control samples. […] Cell images of each treatment group were captured and compared to the control cells to screen for differentiation and cell body volume increases. Cells having neurite-like process outgrowth were noted and photographed. The neurite-like outgrowth was deemed positive if its length was at least two times the width of the cell body.

Series [2] has as its system PACAP receptors in human neuroblastoma NB-OK-1 cell membranes. The conditions noted are these: Robberecht et al. 1992; read-out: reported Ki values; cited from earlier work.
For series [3], the target named is T1, human PAC1 receptors (Homo sapiens, UniProt P41586).
T1 construct: host or cells: CHO (clonal line PAC1-CHO)
T1 sequence (P41586 21-468): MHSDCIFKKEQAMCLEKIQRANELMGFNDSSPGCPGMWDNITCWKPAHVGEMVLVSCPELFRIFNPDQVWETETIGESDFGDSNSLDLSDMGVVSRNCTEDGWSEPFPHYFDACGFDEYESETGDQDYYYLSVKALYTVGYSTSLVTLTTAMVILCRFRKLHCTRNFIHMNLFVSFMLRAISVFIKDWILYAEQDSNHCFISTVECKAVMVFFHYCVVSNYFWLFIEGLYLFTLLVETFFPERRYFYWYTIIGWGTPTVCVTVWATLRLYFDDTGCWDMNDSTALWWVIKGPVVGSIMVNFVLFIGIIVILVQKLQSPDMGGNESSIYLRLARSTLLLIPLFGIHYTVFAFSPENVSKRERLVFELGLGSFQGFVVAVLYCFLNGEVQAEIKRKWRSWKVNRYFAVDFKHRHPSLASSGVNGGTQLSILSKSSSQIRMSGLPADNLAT
Put plainly: FLIPR calcium flux, antagonist variable concentration mode versus 5 nM PACAP1-27, PAC1-CHO cells. It counts as cell-based. To be noted: up to 1 μM. Here is the method:
A custom DNA clone of the human PAC1 gene with 3 hemagglutinin (HA) tags inserted 3′ to the signal peptide sequence (to avoid proteolytic loss) was obtained from Genecopoeia (Rockville, Md.). The construct was electroporated into Chinese Hamster Ovary (CHO) cells, and selected for with 500 μg/mL of G418. The resulting population was screened for high expressing clones, and one such clone selected for further analysis. […] This cell line was used for all molecular pharmacology experiments. The cells were maintained in DMEM/F12 with 10% heat-inactivated FBS, 1× penicillin/streptomycin, and 500 μg/mL G418, at 37° C. and 5% CO2.
All molecular pharmacology experiments were carried out using a FLIPR Tetra from Molecular Devices (Sunnyvale, Calif.), set to image calcium flux using the manufacturer's recommended settings and protocols. […] The resulting calcium flux was recorded, and the maximum-minimum response over the entire observation time calculated and reported as the mean±SEM (4 wells per point).
For antagonist mode experiments, a concentration curve (variable concentration mode) or fixed amount (fixed concentration mode) of antagonist was added to the cells, and allowed to equilibrate for 2 minutes. […] The resulting data was analyzed using a Gaddum/Schild EC50 shift model, (Schild, 1957, Gaddum, 1957) designed to analyze competitive antagonism. […]
In general terms: Calcium assays in cells follow changes in intracellular calcium, usually with a dye or a luminescent sensor.

The target in series [4] is T1, human PAC1 receptors. The series can be described thus: FLIPR calcium flux, antagonist fixed concentration mode (Gaddum/Schild EC50 shift), PAC1-CHO cells. In kind it is cell-based. The conditions noted are these: for shift of PACAP1-27 agonist curves: fixed concentrations of antagonist up to 1 μM. As for the experimental part: A custom DNA clone of the human PAC1 gene with 3 hemagglutinin (HA) tags inserted 3′ to the signal peptide sequence (to avoid proteolytic loss) was obtained from Genecopoeia (Rockville, Md.). The construct was electroporated into Chinese Hamster Ovary (CHO) cells, and selected for with 500 μg/mL of G418. The resulting population was screened for high expressing clones, and one such clone selected for further analysis. […] This cell line was used for all molecular pharmacology experiments. […] All molecular pharmacology experiments were carried out using a FLIPR Tetra from Molecular Devices (Sunnyvale, Calif.), set to image calcium flux using the manufacturer's recommended settings and protocols. The day before an experiment, the PAC1-CHO cells were split into 384 well black walled, clear bottom microplates, 10,000 cells per well. The cells were recovered overnight in growth medium (as above). The next day, the growth medium was replaced with Calcium 6 dye (Molecular Devices) using the manufacturer recommended buffer with 2.5 mM probenecid. The cells were incubated for 2 hours in the culture incubator, and removed during the last 15 minutes to allow equilibration to room temperature. Compound as indicated below was added to the cells using a 384 tip block, with real time monitoring before, during, and 15 minutes after compound addition. The resulting calcium flux was recorded, and the maximum-minimum response over the entire observation time calculated and reported as the mean±SEM (4 wells per point). For antagonist mode experiments, a concentration curve (variable concentration mode) or fixed amount (fixed concentration mode) of antagonist was added to the cells, and allowed to equilibrate for 2 minutes. […] The resulting data was analyzed using a Gaddum/Schild EC50 shift model, (Schild, 1957, Gaddum, 1957) designed to analyze competitive antagonism. […] The pharmacology values are calculated separately from each experiment, then combined and reported as the mean±SEM for the entire set of experiments.

Turning to `CC[C@H](C)[C@H](NC(=O)CNC(=O)[C@H](CC(=O)O)NC(=O)[C@H](CO)NC(=O)[C@@H](N)Cc1c[nH]cn1)C(=O)N[C@@H](Cc1ccccc1)C(=O)N[C@H](C(=O)N[C@@H](CC(=O)O)C(=O)N[C@@H](CO)C(=O)N[C@@H](Cc1ccc(O)cc1)C(=O)N[C@@H](CO)C(=O)N[C@@H](CCCNC(=N)N)C(=O)N[C@@H](Cc1ccc(O)cc1)C(=O)N[C@@H](CCCNC(=N)N)C(=O)N[C@@H](CCCCN)C(=O)N[C@@H](CCC(N)=O)C(=O)N[C@@H](CCSC)C(=O)N[C@@H](C)C(=O)N[C@H](C(=O)N[C@@H](CCCCN)C(=O)N[C@@H](CCCCN)C(=O)N[C@@H](Cc1ccc(O)cc1)C(=O)N[C@@H](CC(C)C)C(=O)N[C@@H](C)C(=O)N[C@@H](C)C(=O)N[C@H](C(=O)N[C@@H](CO[C@@H]1O[C@H](CO)[C@@H](O)[C@H](O)[C@H]1O)C(N)=O)C(C)C)C(C)C)[C@@H](C)O` [PACAP1-27-S-G], the “presence in mouse brain / crossing the blood brain barrier” value in series [1] is listed as “presence in mouse brain could be detected”.
Regarding `CC[C@H](C)[C@H](NC(=O)CNC(=O)[C@H](CC(=O)O)NC(=O)[C@H](CO)NC(=O)[C@@H](N)Cc1c[nH]cn1)C(=O)N[C@@H](Cc1ccccc1)C(=O)N[C@H](C(=O)N[C@@H](CC(=O)O)C(=O)N[C@@H](CO)C(=O)N[C@@H](Cc1ccc(O)cc1)C(=O)N[C@@H](CO)C(=O)N[C@@H](CCCNC(=N)N)C(=O)N[C@@H](Cc1ccc(O)cc1)C(=O)N[C@@H](CCCNC(=N)N)C(=O)N[C@@H](CCCCN)C(=O)N[C@@H](CCC(N)=O)C(=O)N[C@@H](CCSC)C(=O)N[C@@H](C)C(=O)N[C@H](C(=O)N[C@@H](CCCCN)C(=O)N[C@@H](CCCCN)C(=O)N[C@@H](Cc1ccc(O)cc1)C(=O)N[C@@H](CC(C)C)C(=O)N[C@@H](C)C(=O)N[C@@H](C)C(=O)N[C@H](C(=O)N[C@@H](CC(C)C)C(N)=O)C(C)C)C(C)C)[C@@H](C)O` [PACAP1-27], the “neurite-like process outgrowth / differentiation” value in the series with PC12 cells is reported as “induced neurite outgrowth”.
The term Ki denotes the equilibrium dissociation constant of an inhibitor or competing ligand from its target. For the molecule `CSCC[C@H](NC(=O)[C@H](CCC(N)=O)NC(=O)[C@H](CCCCN)NC(=O)[C@H](CCCNC(=N)N)NC(=O)[C@H](Cc1ccc(O)cc1)NC(=O)[C@H](CCCNC(=N)N)NC(=O)[C@H](CO)NC(=O)[C@H](Cc1ccc(O)cc1)NC(=O)[C@H](CO)NC(=O)[C@H](CC(=O)O)NC(=O)[C@@H](NC(=O)[C@@H](N)Cc1ccccc1)[C@@H](C)O)C(=O)N[C@@H](C)C(=O)N[C@H](C(=O)N[C@@H](CCCCN)C(=O)N[C@@H](CCCCN)C(=O)N[C@@H](Cc1ccc(O)cc1)C(=O)N[C@@H](CC(C)C)C(=O)N[C@@H](C)C(=O)N[C@@H](C)C(=O)N[C@H](C(=O)N[C@@H](CC(C)C)C(=O)NCC(=O)N[C@@H](CCCCN)C(=O)N[C@@H](CCCNC(=N)N)C(=O)N[C@@H](Cc1ccc(O)cc1)C(=O)N[C@@H](CCCCN)C(=O)N[C@@H](CCC(N)=O)C(=O)N[C@@H](CCCNC(=N)N)C(=O)N[C@H](C(=O)N[C@@H](CCCCN)C(=O)N[C@@H](CC(N)=O)C(=O)N[C@@H](CCCCN)C(N)=O)C(C)C)C(C)C)C(C)C` [PACAP6-38], the inhibition constant Ki in series [2] was 1.5 nM. Further, the “antagonist activity at PAC1 (in words)” value on human PAC1 receptors [3] is given as “very weak antagonist activity; also recorded: shows antagonism, but it is low potency”. Besides, the “Schild Slope” value on human PAC1 receptors [4] (fixed concentration mode) is 2.0±0.1. Also, the “shift of PACAP1-27 agonist curves” value at human PAC1 receptors [4] was “induced a shift only at 1 μM; also recorded: shifts the curve only at the highest concentration (1 μM)”.
With “FTDSY10SRYRKQMAVK20KYLAAVL (FTDSYSRYRKQMAVKKYLAAVL-NH2; ends and bridges not checked) [PACAP6-27]”, the Ki in series [2] was 60 nM. For the same molecule, in the series with human PAC1 receptors [3], the “antagonist activity at PAC1 (in words)” value is “no antagonist activity and none”. The “shift of PACAP1-27 agonist curves” value with human PAC1 receptors [4] is listed as “caused no shift in the agonist curves; also recorded: no detectable shifts in the agonist curves”.
